What all share (assay): DTP human tumour cell line panel, 48 h
Experiment [1] deals with T-47D breast.
In experiment [2] the test system is SNB-75 CNS.
Experiment [3] deals with HS 578T breast.
The subject of experiment [4] is HCC-2998 colon.
Experiment [5] has as its system LOX IMVI melanoma.
For experiment [6], the system named is SF-539 CNS.
Experiment [7] has as its system BT-549 breast.
Experiment [8] relates to NCI-H23 lung.
Experiment [9] has as its system CCRF-CEM leukemia.
Experiment [10] has as its system SK-MEL-28 melanoma.
Experiment [11] relates to MDA-N.
For experiment [12], the system named is HOP-62 NSCLC.
Experiment [13] concerns HT29 colon.
Experiment [14] deals with A498 renal.
The test system of experiment [15] is HL-60(TB) leukemia.

The structures appear in SMILES notation.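 48-hour exposure; five concentrations; linearly interpolated endpoints. The concentration for 50% growth inhibition is given as GI50. Definition used: TGI = concentration required for complete inhibition of growth.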 Where only a bound is given, the exact number is not on record here.

As for `C=C(CO)[C@H]1CC/C(C)=C/CC/C(C)=C/C/C=C(\C)[C@H](O)C1`, the TGI is > 100 µM in experiment [1]; 78.9 µM in experiment [2]; 74.1 µM in experiment [3]; 32.2 µM in experiment [4]; 73.8 µM in experiment [5]; 40.8 µM in experiment [6]. Also, the TGI in experiment [7] was 44.2 µM; in experiment [8], 86.9 µM; in experiment [9], > 100 µM; in experiment [10], 31.2 µM; in experiment [11], > 100 µM; in [12], > 100 µM. The compound further registered a TGI in experiment [13] of 35 µM.
Regarding `CCOC(=O)Cc1nc2nn(Cc3ccccc3)cc2c(=O)[nH]1`, the TGI in experiment [1], in [2], in experiment [4], in [5], in experiment [6] and in experiment [7] was > 100 µM in each case. Also, the concentration for total growth inhibition (TGI) in experiment [8], in experiment [9], in experiment [10], in experiment [11], in experiment [14] and in experiment [12] was > 100 µM each time. In addition, the total growth inhibition concentration (TGI) in experiment [13] and in experiment [15] was > 100 µM each time.
For `Cc1ccc(-c2cnc(NC3OC(COC(=O)c4ccccc4)C(OC(=O)c4ccccc4)C(OC(=O)c4ccccc4)C3OC(=O)c3ccccc3)s2)cc1` (stereo not drawn), the concentration for total growth inhibition (TGI) in experiment [1], in [2], in experiment [3], in experiment [5], in [7] and in experiment [8] was > 100 µM throughout. Besides, the TGI in [10], in experiment [11], in experiment [12] and in [13] was > 100 µM in each case.
Turning to `CC(C)[Si](OCC/C=C/C1CCC(=O)C1C(O)C1CCCCC1)(C(C)C)C(C)C` (stereo not drawn), the TGI in experiment [1] amounted to 33.7 µM; in [2] it was 30.1 µM; in experiment [3], 36.5 µM; in experiment [4], 23.2 µM; in experiment [5] it was 32.7 µM; in [6], 40.6 µM. Further, the concentration for total growth inhibition (TGI) in experiment [7] amounted to 34.1 µM; in [8], 29 µM; in experiment [9], 44.6 µM; in experiment [10], 29 µM; in experiment [11], 36.4 µM; in [14] it was 33.9 µM. For the same compound, the TGI amounted to 31.3 µM in [12] and 26.2 µM in [13].
For the compound `NC(=O)CC1(O)C=CC(=O)C=C1`, the TGI in [1], in [2], in [4], in experiment [5], in [6] and in [7] was > 100 µM throughout. Moreover, the total growth inhibition concentration (TGI) in experiment [8], in experiment [9], in experiment [10], in experiment [11], in experiment [14] and in experiment [12] was > 100 µM each time. Further, the TGI in experiment [13] and in [15] was > 100 µM each time.
`Cc1nc2c(n1CCCl)C(=O)c1ccccc1C2=O`: the TGI in experiment [2] was > 100 µM; in experiment [3] it was > 100 µM; in [4], 67.5 µM; in experiment [6], > 100 µM; in experiment [7], 38.3 µM; in experiment [8], 92.2 µM. For the same compound, the concentration for total growth inhibition (TGI) in experiment [9] is > 100 µM; in [10] it was > 100 µM; in experiment [11], 32.6 µM; in [12] it was 62.4 µM; in experiment [13] it was 44.7 µM; in experiment [15], 83.8 µM.
Take `OC1OC(c2ccc[nH]2)C(F)(F)C(F)(F)C1(F)F` (stereo not drawn): the TGI in experiment [1], in [2], in experiment [3], in [5], in experiment [6] and in experiment [7] was > 100 µM throughout. The TGI in [9], in experiment [10], in [11], in experiment [14], in [12] and in experiment [13] was > 100 µM in each case. Moreover, the TGI in experiment [15] was > 100 µM.
In the case of `O=C(O)c1ccccc1C(=O)OCC1CCCN2CCCCC12` (stereo not drawn), the concentration for total growth inhibition (TGI) in experiment [1], in experiment [2], in experiment [3], in [4], in experiment [5] and in experiment [6] was > 100 µM each time. Besides, the TGI in experiment [7], in [8], in [9], in [10], in experiment [11] and in experiment [14] was > 100 µM each time. The concentration for total growth inhibition (TGI) in experiment [12] and in experiment [13] was > 100 µM throughout.
Regarding `Cn1c(=S)[nH]c2c(Cl)cc(Cl)cc2c1=O`, the TGI in [2], in [3], in experiment [4], in [5], in [6] and in experiment [7] was > 100 µM in each case. The TGI in experiment [8] was > 100 µM; in experiment [9] it was 64.7 µM; in experiment [10], > 100 µM; in [11] it was > 100 µM; in experiment [12], > 100 µM; in [15], 78.8 µM.
`Clc1cccc(Cl)c1C1SCc2nc3cc4ccccc4cc3n21` (stereo not drawn): the TGI in experiment [1], in experiment [2], in experiment [3], in [4], in experiment [7] and in experiment [8] was > 100 µM throughout. Further, the TGI in experiment [9], in experiment [10], in [11], in experiment [12] and in [13] was > 100 µM in each case.
In the case of `O=C(n1[nH]c(=O)n(-c2ccc([N+](=O)[O-])cc2)c1=O)C(Cl)(Cl)Cl`, the TGI in experiment [1], in [2], in experiment [3], in experiment [4], in [5] and in [7] was > 75 µM each time. The TGI in experiment [8], in [10], in experiment [11], in experiment [12], in experiment [13] and in [15] was > 75 µM throughout.
With `O=c1c2cc([N+](=O)[O-])cnc2sn1-c1ccc(Oc2ccccc2)cc1`, the total growth inhibition concentration (TGI) in experiment [1] was 56.6 µM; in experiment [2], > 100 µM; in [3] it was 96.5 µM; in experiment [4], > 100 µM; in experiment [5] it was > 100 µM; in experiment [6], > 100 µM. Besides, the TGI in experiment [7], in experiment [8], in experiment [9], in [10], in experiment [11] and in experiment [12] was > 100 µM in each case. Further, the TGI in [13] and in [15] was > 100 µM in each case.
On to `C#CCOC(=O)C(N)CS` (stereo not drawn), for which the concentration for total growth inhibition (TGI) in [1], in experiment [2], in experiment [3], in experiment [5], in experiment [7] and in [8] was > 100 µM each time. The TGI in experiment [9], in experiment [10], in experiment [11], in experiment [14], in experiment [12] and in experiment [13] was > 100 µM in each case. In addition, in experiment [15], the total growth inhibition concentration (TGI) was > 100 µM.
Consider `CC(C)CC(NC(=O)OCc1ccccc1)C(=O)NCCCCC(N)C(=O)NC(CCCCNC(=O)C(CC(C)C)NC(=O)OCc1ccccc1)C(=O)NC(CCCCNC(=O)C(CC(C)C)NC(=O)OCc1ccccc1)C(=O)NC(CCCCNC(=O)C(CC(C)C)NC(=O)OCc1ccccc1)C(=O)NC(CCCCNC(=O)C(CC(C)C)NC(=O)OCc1ccccc1)C(=O)NC(CCCCNC(=O)C(CC(C)C)NC(=O)OCc1ccccc1)C(=O)O` (stereo not drawn), for which the TGI in experiment [1], in experiment [4], in [5], in experiment [7], in [8] and in experiment [9] was > 100 µM each time. Also, the TGI in experiment [11], in experiment [14], in [12], in experiment [13] and in experiment [15] was > 100 µM throughout.
For the compound `NC(=Nc1ccc(Cl)c(Cl)c1)c1ccccc1N`, the concentration for total growth inhibition (TGI) is 75.7 µM in [2]; 50 µM in experiment [3]; 34.2 µM in experiment [4]; 69.3 µM in experiment [5]; > 100 µM in [7]; > 100 µM in [8]. Besides, the TGI in experiment [9] is > 100 µM; in experiment [10], 52.2 µM; in experiment [11], 53.4 µM; in experiment [14], 55.1 µM; in [12], > 100 µM; in [13], > 100 µM. In experiment [15], this compound gave a concentration for total growth inhibition (TGI) of 52 µM.
On to `COCC1OCCN1C` (stereo not drawn), for which the TGI in [1], in experiment [2], in experiment [3], in [5], in experiment [6] and in experiment [7] was > 100 µM in each case. Further, the total growth inhibition concentration (TGI) in experiment [8], in experiment [9], in experiment [11], in experiment [14], in experiment [12] and in experiment [13] was > 100 µM in each case.
Turning to `C=CCN1C(=O)N/C(=C\c2ccc(Cl)cc2)C1=O`, the TGI in experiment [1], in experiment [2], in experiment [3], in experiment [5], in experiment [6] and in experiment [7] was > 100 µM each time. The concentration for total growth inhibition (TGI) in experiment [8], in experiment [9], in experiment [10], in [11], in experiment [14] and in experiment [12] was > 100 µM each time. Moreover, the TGI in experiment [13] and in experiment [15] was > 100 µM throughout.
`C/C(=C\c1csc(C)n1)[C@@H]1C[C@@H]2O[C@]2(C)CCC[C@H](C)[C@H](O)[C@@H](C)C(=O)C(C)(C)[C@@H](O)CC(=O)O1` (tested in a mixture with another compound): the TGI in experiment [1] was > 1 µM; in [3], > 1 µM; in experiment [5], > 1 µM; in experiment [6] it was 0.0348 µM; in experiment [7], > 1 µM; in experiment [8] it was > 1 µM. For the same compound, the concentration for total growth inhibition (TGI) in experiment [10] is > 1 µM; in experiment [11], 0.00205 µM; in [14], > 1 µM; in [12], > 1 µM; in [13], > 0.378 µM; in experiment [15], 0.0278 µM. Also, the GI50 in [2] was 0.00551 µM; in experiment [4], 0.00305 µM; in [13], 0.000721 µM.
Consider `CCCOc1ccc(/C=C/C2=[N+](CCO)CCO2)cc1`, for which the TGI in experiment [1], in experiment [2], in [3], in experiment [4], in experiment [6] and in [7] was > 100 µM throughout. In addition, the TGI in experiment [8], in experiment [9], in experiment [10], in experiment [11], in [14] and in experiment [12] was > 100 µM each time. The TGI in experiment [13] and in [15] was > 100 µM in each case.
Regarding `COC(=O)C1=C(C(=O)OC)C(C(=O)c2ccccc2)N2N=C(c3ccc(Cl)cc3)C=CC12` (stereo not drawn), the TGI was > 100 µM in experiment [1]; > 100 µM in experiment [4]; > 100 µM in experiment [5]; > 100 µM in [6]; 8.55 µM in [7]; > 100 µM in experiment [8]. In addition, the total growth inhibition concentration (TGI) in experiment [9], in experiment [10], in experiment [11], in [14], in experiment [12] and in experiment [13] was > 100 µM in each case. Besides, the total growth inhibition concentration (TGI) in experiment [15] is > 100 µM.

(Values after PubChem BioAssay (NCI).)
